We go through one compound from patent publication US20260191933A1, “PHARMACEUTICAL COMBINATIONS AND USES THEREOF” (The University of Melbourne, priority 2022, published 2026).

Assay [1] has as its system 12-week HFHS fed obese mice. Put plainly: Example 21: 14-day treatment and off-treatment phase, weight rebound, body composition, metabolic rate, food intake. Format: in vivo, C57BL/6J male mice.
Experimental: To induce diet-induced obesity in adulthood, the mice were ad libitum access to water and high-fat-high-sugar (HFHS) diet (43% of total energy from fat, SF04-001, Speciality Feeds, Australia) starting at eight weeks of age for 12 weeks. Aged-matched chow-fed C57BL/6J male mice were ad libitum access to standard chow diet throughout full duration of the experiment.
Mice adiposity and lean mass were measured via the TD-NMR minispec (Bruker Optics Inc., USA) acquiring EchoMRI-900 Body Composition Analyser (EchoMRI LLC, USA). Interscapular brown adipose tissue, inguinal and epidermal white adipose tissues and the liver were weighed to determine tissue-specific adiposity.
At day 15, treatments were discontinued however all groups continued to receive ad libitum access to HFHS diet to assess the rebound following treatment cessation.
The test system of assay [2] is 12-week HFHS fed obese mice. Put plainly: I.C.V. fluorosamine in obese mice: glucose tolerance and hyperinsulinemic-euglycemic clamps. Format: in vivo, C57BL/6J mice. Here is the method:
For hyperinsulinemic-euglycemic clamps, mice were anesthetised under isoflurane and the right jugular vein was catheterised for infusions, as described previously by Dodd et al., 2018. Catheters were attached to an implant button (BMSW25, RWD Life Sciences, Shenzhen, China). Implant buttons were capped allowing for group mousing of mice and catheters were kept patent by flushing daily with 40 μL saline containing 200 units/mL heparin. On the day of the experiment, food was removed at 7:00 A.M. After 3.5 h fasting, a primed (1 min, 1.25 uCi/min) continuous infusion (0.05 uCi/min) of [3-3H]glucose (NET331A001MC, PerkinElmer, MA) was administered to measure whole-body glucose turnover, as described previously by Dodd et al., 2018. […]
Metabolic measurements were undertaken in the Melbourne Mouse Metabolic Phenotyping Platform (The University of Melbourne, Australia). […] The areas under glucose excursion curves were determined and expressed as mmol/l×min. Fasted (12 h fast) plasma insulin or glucose levels were determined using a Rat/Mouse Insulin ELISA (EZRMI-13K, Merck Millipore, CA) or an Accu-Check glucometer respectively. The HOMA-IR was calculated using the equation [(glucose×insulin)/405]. Adiposity was measured using TD-NMR minispec (Bruker Optics Inc., Billerica, MA). […]

The next assay has as its system diet-induced obese mice. Put plainly: I.C.V. PZ6005 and/or S.C. liraglutide: I.P. GTT. In kind it is in vivo, C57BL/6j mice. The conditions noted are these: day 14; 6 hours fasted; compared with the control treatment. Here is the method:
Metabolic measurements were undertaken in the Melbourne Mouse Metabolic Phenotyping Platform (The University of Melbourne, Australia). Glucose tolerance tests were performed on 6 h fasted conscious mice respectively by injecting D-glucose (2 mg/g of lean body mass and 1 mg/g lean mass for db/db and HFHS+STZ mice) into the peritoneal cavity and measuring glucose in tail blood immediately before and at 15, 30, 45, 60, 90 and 120 min after injection using an Accu-Check glucometer (Roche, Germany). The areas under glucose excursion curves were determined and expressed as mmol/l×min. Fasted (12 h fast) plasma insulin or glucose levels were determined using a Rat/Mouse Insulin ELISA (EZRMI-13K, Merck Millipore, CA) or an Accu-Check glucometer respectively. The HOMA-IR was calculated using the equation [(glucose×insulin)/405]. Adiposity was measured using TD-NMR minispec (Bruker Optics Inc., Billerica, MA).

The subject of assay [3] is 12-week obese AgRP-Cas9 mice. Briefly: I.C.V. fluorosamine in obese AgRP-Cas9 mice given AAV-gScrambled or AAV-gIR. Format: in vivo. Here is the method: To disassemble the CSPG-ECM within the ARC, mice received bilaterally (unless stated otherwise) administration of 15 mU/side of active chABC (C3667, Sigma, St. Louis, […], dissolved in 1 M trehalose) or heat-inactivated chABC protein as a vehicle (chABC in 1 M trehalose was heat-inactivated at 85° C. for 45 mins, as described previously by Alonge et al., 2020) in a total volume of 150 nl/side. To pulse the CSPG-ECM within the ARC or RSG, mice received bilateral (unless stated otherwise) administration of biotinylated WFA (0.3 μg/side, in a volume of 150 nl). To disrupt IR in AgRP neurons, 12-week HFHS fed AgRP-Cas9 mice were stereotaxically injected with AAVs expressing U6-driven guide RNA's targeting the InsR gene or a scrambled sequence (5′ GTGTAGTTCGACCATTCGTG ′3 (SEQ ID NO: 14)) alongside a CAG driven mCherry FLEX switch. Unless otherwise stated injections were bilaterally into the ARC (coordinates, bregma: anterior-posterior, −1.70 mm; dorsal-ventral, −5.85 mm; lateral, +/−0.18 mm, 200 nl/side) or into the RSG (coordinates, bregma: anterior-posterior, −1.40 mm; dorsal-ventral, −1.80 mm; lateral, +/−0.50 mm, 200 nl/side). WFA-biotin was injected unilaterally into the cc (coordinates, bregma: anterior-posterior, −1.40 mm; dorsal-ventral, −5.80 mm; lateral, +/−0.20 mm, 200 nl/side)
To generate AAV-gScrambled (pAAV-U6>mScramble-[…] (SEQ ID NO: 14))-CAG>LL:rev(mCherry):rev(LL):WPRE) and AAV-gIR (pAAV[-U6>mInsr[gRNA-[…] (SEQ ID NO: 15)]-U6>mInsr[gRNA-[…] (SEQ ID NO: 16)]-CAG>LL:rev(mCherry):rev(LL):WPRE) viral vectors, sgRNAs were first designed using online CRISPR tools (http://crispr.mit.edu and http://chopchop.cbu.uib.no/). […] For AAV-gScrambled a pUp-U6>Scramble gRNA vector was generated using the Gibson assembly of a pDONR P4-P1R backbone and primers 5′ […] ′3 (SEQ ID NO: 17) and 5′ […] ′3 (SEQ ID NO: 18). For AAV-gIR a pUp-U6>mInsr[gRNA-[…] (SEQ ID NO: 15)]-U6>mInsr[gRNA-[…] (SEQ ID NO: 16)] gRNA vector was generated using the Gibson assembly of a AarI digested pUp-U6-gRNA-AarI-Stuffer-AarI backbone and primers 5′ […] ′3 (SEQ ID NO: 19) and 5′ […] ′3 (SEQ ID NO: 20). For both AAV-gScrambled and AAV-gIR the p-Up vectors were cloned alongside pDown-CAG and pTail-LL:rev(mCherry):rev(LL) to generate the final vectors by LR reaction using the Gateway method. AAV vectors were packaged into the AAV-DJ/8 steotype at a titre of >2 10^13 GC/ml). All vector cloning and AAV packaging was carried out by VectorBuilder (Chicago, IL).
Under isoflurane anaesthetic 12-week HFHS fed C57BL/6J or AgRP-Cas9 mice were implanted stereotaxically with guide cannulas into the right lateral ventricle (0.2 mm posterior, 1.0 mm lateral from bregma). Guide cannula was positioned 1.3 mm above the injection site (1 mm ventral to the surface of the skull). AgRP-Cas9 mice were treated with either AAV-gScrambled or AAV-gIR and underwent guide cannula placement 7 days post AAV administration. Mice were administered I.C.V. vehicle (ddH2O), fluorosamine (100 μg/animal/day or 250 μgl/animal/day) in a volume of 2 μl/animal and all compounds were delivered approximately 1 h before lights off (7 pm).

The mark [4] stands for this setting: AAV-gScrambled AgRP-Cas9 mice, 100 μg/animal I.C.V. daily for 10 days.

Structures are written as SMILES.

Regarding `CC(=O)NC1C(OC(C)=O)OC(COC(C)=O)[C@@H](F)C1OC(C)=O` (some centres unmarked) [PZ6005, per-O-acetylated-4-F-N-acetylglucosamine], the “baseline fat mass, without affecting lean mass” value in assay [1] (14 days after terminating treatments, compared to vehicle and liraglutide alone) was “significant decrease”. Further, the “mean weight loss from baseline (day 0)” value in assay [1] (day 14, PZ6005 100 μg/animal I.C.V. every second day, liraglutide 200 μg/kg daily) is given as 15.08±1.45%. Moreover, the liver mass entry in assay [1] (end of experiment, vs other littermates) was “lower liver mass”. For the same compound, the “day of return to baseline body weight” value in assay [1] (off-treatment phase) amounted to 30.00 ± 1.72 days. For the same compound, in assay [1] (treatment phase, without effects on ambulatory activity), the “oxygen consumption and whole-body energy expenditure” value is “elevated”. Also, the “whole-body insulin sensitivity (GIR)” value in assay [2] (hyperinsulinemic-euglycemic clamps, weight matched obese mice, daily for 3 days I.C.V.) is “enhancement”. In addition, the glucose tolerance entry in assay [2] (obese mice, I.C.V. for 10 days) is on record as “improved glucose tolerance”. The “glucose excursion (I.P. GTT)” value with diet-induced obese mice is listed as “reduced glucose excursion”. For the same compound, the positive metabolic outcomes in assay [3] (AAV-IR AgRP-Cas9 mice) is “mitigated, at least in part”. In addition, in assay [3] (setting [4]), the adiposity entry is on record as “reduced adiposity”, the body weight result is recorded as “promoted weight loss”, the caloric intake result is on record as “attenuated caloric intake” and the energy expenditure result is “enhanced energy expenditure”. The glycaemic control result in assay [3] (setting [4]) is “improved glycaemic control”.
